Test results taken from patent US20160242416A1, “FUNGICIDAL ISOXAZOLINE CARBINOLS” (E I DU PONT DE NEMOURS AND COMPANY, priority 2015, published 2016).

Tests used:
Zymoseptoria tritici = test: Test E: wheat leaf blotch, preventive spray on wheat seedlings; settings: 100 = 100% disease control; for Test E rating (% disease control): 10 ppm, wheat leaf blotch, 0 = no control
Source text: (§1) General protocol for preparing test solutions for Tests A-G: the test compounds were first dissolved in acetone in an amount equal to 3% of the final volume and then suspended at the desired concentration (in ppm) in acetone and purified water (50/50 mix by volume) containing 250 ppm of the surfactant PEG400 (polyhydric alcohol esters). The resulting test suspensions were then used in Tests A-G. Compounds were sprayed at a concentration of 50 ppm (*) or 10 ppm to the point of run-off on the test plants, the equivalent of a rate of 200 g/ha or 40 g/ha, respectively.
The test solution was sprayed to the point of run-off on wheat seedlings. The following day the seedlings were inoculated with a spore suspension of Zymoseptoria tritici (the causal agent of wheat leaf blotch) and incubated in a saturated atmosphere at 24° C. for 48 h, and then moved to a growth chamber at 20° C. for 17 days, after which time visual disease ratings were made.
(§2) Compounds with an asterisks (*) were applied at a concentration of 50 ppm, otherwise test solutions were applied at 10 ppm.

[1] = system: Erysiphe graminis f sp. tritici; test: Test G: wheat powdery mildew, preventive spray on wheat seedlings; settings: 100 = 100% disease control; for Test G rating (% disease control): 10 ppm, wheat powdery mildew, 0 = no control
[2] = system: Puccinia recondita f sp. tritici; test: Test F: wheat leaf rust, preventive spray on wheat seedlings; settings: 100 = 100% disease control; for Test F rating (% disease control): 10 ppm, wheat leaf rust, 0 = no control
Botrytis cinerea = test: Test B: gray mold, preventive spray on tomato seedlings; settings: 100 = 100% disease control; for Test B rating (% disease control): 10 ppm, gray mold on tomato, 0 = no control
Stagonospora nodorum = test: Test D: wheat glume blotch, preventive spray on wheat seedlings; settings: 100 = 100% disease control; for Test D rating (% disease control): 10 ppm, wheat glume blotch, 0 = no control
Source text: as §1
The test solution was sprayed to the point of run-off on wheat seedlings. The following day the seedlings were inoculated with a spore suspension of Stagonospora nodorum (also known as Septoria nodorum; the causal agent of wheat glume blotch) and incubated in a saturated atmosphere at 20° C. for 48 h, and then moved to a growth chamber at 20° C. for 6 days, after which time visual disease ratings were made.
as §2

[3] = 10 ppm test solution, 0 = no control relative to controls

Row | SMILES | Test E rating (% disease control) (Zymoseptoria tritici) | Test G rating (% disease control) [1] | Test F rating (% disease control) [2] | Test B rating (% disease control) (Botrytis cinerea) | Test D rating (% disease control) (Stagonospora nodorum) | Test E disease control rating (Zymoseptoria tritici; [3]) | Test G disease control rating [1, 3] | Test F disease control rating [2, 3] | Test B disease control rating (Botrytis cinerea; [3]) | Test D disease control rating (Stagonospora nodorum; [3])
1 | CC(C)(C)C(O)(Cn1cncn1)C1=NOC(COc2ccc(Cl)cc2)C1 (stereo not drawn) [Compound 175, α-[5-[(4-chlorophenoxy)methyl]-4,5-dihydro-3-isoxazolyl]-α-(1,1-dimethylethyl)-1H-1,2,4-triazole-1-ethanol] | 1% | 100% | 100% | 0% | 100% | – | – | – | – | –
2 | OC(Cn1cncn1)(C1=NOC(Cc2ccccc2)C1)c1ccc(Cl)cc1 (single isomer, unassigned) [Compound 137] | 26% | 99% | 99% | 0% | 77% | – | – | – | – | –
3 | CC(C)(C)C(O)(Cn1cncn1)C1=NOC(Cc2ccc(Cl)c(Cl)c2)C1 (single isomer, unassigned) [Compound 22] | 29% | 99% | 100% | 0% | 96% | – | – | – | – | –
4 | CC(C)(C)C(O)(Cn1cncn1)C1=NOC(c2cnccn2)C1 (single isomer, unassigned) [Compound 168] | 3% | 35% | 0% | 11% | 0% | – | – | – | – | –
5 | CC(C)(C)C(O)(Cn1cncn1)C1=NOC(COc2ccc(-n3cccn3)cc2)C1 (single isomer, unassigned) [Compound 28] | 0% | 99% | 0% | 24% | 39% | – | – | – | – | –
6 | Cn1nc(C(F)(F)F)cc1OCC1CC(C(O)(Cn2cncn2)C(C)(C)C)=NO1 (single isomer, unassigned) [Compound 56] | 0% | 94% | 97% | 0% | 20% | – | – | – | – | –
7 | OC(Cn1cncn1)(C1=NOC(COCc2ccccc2)C1)c1ccc(Cl)cc1 (single isomer, unassigned) [Compound 58] | 0% | 68% | 0% | 0% | 0% | – | – | – | – | –
8 | OC(Cn1cncn1)(C1=NOC(c2ccc(Cl)cc2)C1)c1ccccc1F (single isomer, unassigned) [Compound 134] | 31% | 98% | 99% | 0% | 100% | – | – | – | – | –
9 | CC(C)(C)C(O)(Cn1cncn1)C1=NOC(CO[Si](C)(C)C(C)(C)C)C1 (single isomer, unassigned) [Compound 10] | 0% | 13% | 19% | 0% | 0% | – | – | – | – | –
10 | CC(C)(C)CC(O)(Cn1cncn1)C1=NOC(COc2ccc(Br)cc2)C1 (single isomer, unassigned) [Compound 170] | 68% | 99% | 100% | 0% | 99% | – | – | – | – | –
11 | CC(C)(C)C(O)(Cn1cncn1)C1=NOC(c2cnccn2)C1 (single isomer, unassigned) [Compound 169] | 4% | 0% | 0% | 0% | 9% | – | – | – | – | –
12 | OC(Cn1cncn1)(C1=NOC(c2ccc(Cl)cc2)C1)c1ccc(Oc2ccccc2)cc1 (mixture of isomers) [Compound 152] | 34% | 87% | 50% | 0% | 0% | – | – | – | – | –
13 | OC(Cn1cncn1)(C1=NOC(COc2ccc(Cl)cn2)C1)c1ccc(Cl)cc1 (single isomer, unassigned) [Compound 165] | 5% | 100% | 99% | 0% | 72% | – | – | – | – | –
14 | OC(Cn1cncn1)(C1=NOC(c2ccc(Cl)cc2)C1)c1ccc(Cl)cc1Cl (single isomer, unassigned) [Compound 141] | 1% | 84% | 99% | 0% | 0% | – | – | – | – | –
15 | CC(C)(C)C(O)(Cn1cncn1)C1=NOC(CO[Si](C)(C)C(C)(C)C)C1 (single isomer, unassigned) [Compound 9] | 0% | 64% | 0% | 0% | 0% | – | – | – | – | –
16 | CC(C)(C)C(O)(Cn1cncn1)C1=NOC(COc2ccc(Cl)nc2)C1 (single isomer, unassigned) [Compound 98] | 0% | 55% | 88% | 0% | 0% | – | – | – | – | –
17 | CSc1ccc(C2CC(C(O)(Cn3cncn3)c3ccc(Cl)cc3)=NO2)cc1 (single isomer, unassigned) [Compound 108] | 25% | 64% | 78% | 0% | 0% | – | – | – | – | –
18 | OC(Cn1cncn1)(C1=NOC(c2ccc(Cl)cc2)C1)c1ccc(F)cc1 (single isomer, unassigned) [Compound 160] | 11% | 100% | 100% | 75% | 99% | – | – | – | – | –
19 | OC(Cn1cncn1)(C1=NOC(Cc2ccc(Br)cc2)C1)c1ccc(Cl)cc1 (single isomer, unassigned) [Compound 54] | 0% | 99% | 100% | 0% | 87% | – | – | – | – | –
20 | OC(Cn1cncn1)(C1=NOC2c3ccccc3CCC12)c1ccc(Cl)cc1 (centres unmarked) [Compound 223] | – | – | – | – | – | 63% | 99% | 100% | 0% | 0%
21 | OC(Cn1cncn1)(C1=NOC(c2ccc(-n3ccc(C(F)(F)F)n3)cc2)C1)c1ccc(Cl)cc1 (single isomer, unassigned) [Compound 148] | 92% | 100% | 100% | 0% | 59% | – | – | – | – | –
22 | OC(Cn1cncn1)(C1=NOC(c2cccc(Oc3ccccc3)c2)C1)c1ccc(Cl)cc1 (single isomer, unassigned) [Compound 177] | 0% | 89% | 0% | 0% | 51% | – | – | – | – | –
23 | CC(C)(C)C(O)(Cn1cncn1)C1=NOC(CCc2ccc(C(F)(F)F)cc2)C1 (single isomer, unassigned) [Compound 14] | 4% | 99% | 100% | 0% | 88% | – | – | – | – | –
24 | CC(C)(C)C(O)(Cn1cncn1)C1=NOC(COc2ccc3c(c2)OCO3)C1 (single isomer, unassigned) [Compound 46] | 0% | 73% | 85% | 19% | 76% | – | – | – | – | –
25 | OC(Cn1cncn1)(C1=NOC(c2ccc(Cl)cc2)C1)c1ccc(Br)cc1 (single isomer, unassigned) [Compound 181] | 0% | 69% | 45% | 0% | 0% | – | – | – | – | –
26 | CC(C)(C)C(O)(Cn1cncn1)C1=NOC(CCc2ccc(Cl)cc2)C1 (single isomer, unassigned) [Compound 15] | 19% | 100% | 100% | 100% | 100% | – | – | – | – | –
27 | OC(Cn1cncn1)(C1=NOC(c2ccc(F)cc2)C1)c1ccc(Cl)cc1 (single isomer, unassigned) [Compound 158] | 3% | 100% | 100% | 0% | 96% | – | – | – | – | –
28 | CC(C)(C)C(O)(Cn1cncn1)C1=NOC(COc2ccc(Br)cc2)C1 (single isomer, unassigned) [Compound 182] | 96% | 100% | 100% | 99% | 99% | – | – | – | – | –
